# Source: patent publication US9370555B2, “Surfactant protein D for the treatment of disorders associated with lung injury” (priority 1998, dated 2016)
# Entries after “also recorded” stand apart in the source; their conditions may differ.
# How the values were obtained:
# MMP-2 and 9 = assay: Gelatin zymography of conditioned media from alveolar macrophages of SP-D(−/−) mice; assay type: cell-based, mouse; conditions: for gelatinolytic activity of MMP-2 and 9 in conditioned media: AMs from SP-D(−/−) mice, 20 mM NAC, 200 μM PDTC, 1 μM DPI, 1 mM apocynin, 10 μM SN-50, 24 h
# Description: Isolation of alveolar macrophages (AMs) from bronchoalveolar lavage (BAL) was performed by instilling ten, 1 ml aliquots of phosphate-buffered saline (PBS). BAL fluid from several animals was pooled to provide sufficient numbers of macrophages for each analysis. The lavage was centrifuged at 1200 rpm at 7 min and pelleted cells were resuspended in serum-free RPMI medium containing 1% of Nutriodoma (Boehringer Mannheim, Indianapolis, Ind.), and counted with a hemocytometer. More than 90% of BAL cells were AM in both WT and SP-D (−/−) mice. For some experiments, alveolar macrophages (AMs) were isolated by differential attachment to tissue culture flasks at 37° C. Non-adherent cells were then removed, and fresh, serum-free medium was added. The adherent AMs were maintained in a humidified atmosphere containing 5% CO2 and 95% air until the end of the experiments. To determine whether increased oxidant production mediated the expression of MMPs by AMs from SP-D (−/−) mice, the cells were treated with N-acetylcysteine (NAC) and pyrrolidine dithiocarbamate (PDTC), both antioxidant reagents as follows: AMs from SP-D (−/−) mice were pooled and placed in culture at a concentration of 5×10^5 cells per well in serum-free RPMI medium. The AMs were treated with 20 mM N-acetylcysteine (NAC), 200 μM pyrolidine dithiocarbamate (PDTC), 1 μM diphenylene iodonium chloride (DPI) (Sigma, St. Louis, Mo.), or 1 mM apocynin (Aldrich, Milwaukee, Wis.). Cells were also incubated with a 10 μM SN-50 (Calbiochem, LaJolla, Calif.), an inhibitor of NF-κB nuclear import. After 6 h incubation, supernatants were removed and the cells were washed and incubated with fresh media including the reagents for 24 h. […] RAW 264.7 murine macrophage cell line was obtained from the American Type Culture Collection (Rockville, Md.) and maintained in DMEM containing 10% FBS, 10 mM HEPES, 50 U/ml penicillin and 50 μg/mL streptomycin. 2×10^5 cells in 24-well plates were incubated with or without 10 μM menadione (Sigma, St. Louis, Mo.) for 24 hours. Gelatinolytic activity in the culture media of untreated and treated cells was analyzed by SDS-PAGE zymography (FIGS. 29A-29D). Gelatin Zymography was performed as follows: MMP activities were measured in macrophage-conditioned media. Proteinases in the conditioned media were concentrated by incubation with gelatin-agarose beads (Amersham Pharmacia, Arlington Heights, Ill.) for 2 h at 4° C. The beads were pelleted and washed, and proteinases eluted by incubation in sample buffer for 45 min at 37° C. The samples then were electrophoresed into 10% Zymogram gelatin gels (NOVEX, San Diego, Calif.). […] Gels were stained with 0.5% (wt/vol) Coomassie blue in 50% methanol and 10% acetic acid for 30 min, then destained. MMPs were detected as clear bands against a blue background.
# MMP-2 and 9 mRNA = assay: RT-PCR of MMP-2 and 9 mRNA in cultured AMs from SP-D(−/−) mice; assay type: cell-based, mouse; conditions: 1 mM apocynin
# NF-κB = assay: EMSA of nuclear extracts from AMs of SP-D(−/−) mice, NF-κB oligonucleotide; assay type: cell-based, mouse; conditions: AMs isolated from SP-D(−/−) mice
# Description: (§1) To assess whether apocyanin affected binding of nuclear extracts, the following protocol was used: Nuclear extracts were obtained using a modified method previously described (Sever Chroneos, et al. Am. J. Physiol. 277:L79). Lavaged cells were lysed with Buffer A (10 mM Hepes, 10 mM KCl, 0.1 mM EDTA, 1.5 mM MgCl2, 0.2% Nonidet P-40 (NP-40), 1 mM DTT, 0.5 mM PMSF), followed by vortexing to shear the cytoplasmic membranes. Nuclei were pelleted by centrifugation at 3000 rpm for 3 min at 4° C. in a microcentrifuge. Nuclear proteins were extracted with high-salt buffer C (20 mM Hepes, 25% glycerol, 1.5 mM MgCl2, 0.1 mM EDTA, 1.5 mM MgCl2, 420 mM NaCl, 1 mM DTT, 0.5 mM PMSF) and stored at −80° C. Total nuclear protein concentrations were determined by bicinchoninic acid (BCA) method.
# AP-1 = assay: EMSA of nuclear extracts from AMs of SP-D(−/−) mice, AP-1 oligonucleotide; assay type: cell-based, mouse; conditions: AMs isolated from SP-D(−/−) mice
# Description: as §1
# [1] = system: RAW 264.7 murine macrophage cell line; assay: MMP-9 production by RAW 264.7 macrophages (zymography); assay type: cell-based, mouse; conditions: 10 μM, 24 hours
# Description: RAW 264.7 murine macrophage cell line was obtained from the American Type Culture Collection (Rockville, Md.) and maintained in DMEM containing 10% FBS, 10 mM HEPES, 50 U/ml penicillin and 50 μg/mL streptomycin. 2×10^5 cells in 24-well plates were incubated with or without 10 μM menadione (Sigma, St. Louis, Mo.) for 24 hours. To assess whether ROS directly stimulated MMP production, RAW 264.7 macrophages were incubated with 10 μM of menadione, a ROS generator, for 24 hours.
# SP-D(−/−) mice = assay: Treatment of SP-D(−/−) mice with purified mouse SP-D: saturated PC pools; assay type: in vivo; conditions: 2.9 μg intratracheally at 24 hour intervals, 3 to 7 doses
# [2] = system: influenza A virus A/Phillipines/82 (H3N2) (Phil/82); assay type: in vivo; conditions: SP-D −/− mice
molecule,measurement,setting,value
"c1ccc2c(c1)[I+]c1ccccc1-2 [DPI, diphenylene iodonium chloride]",gelatinolytic activity of MMP-2 and 9 in conditioned media,MMP-2 and 9,markedly suppressed MMP enzymatic activity; also recorded: markedly decreased MMP activity
"CC(=O)N[C@@H](CS)C(=O)O [NAC, N-acetylcysteine]",gelatinolytic activity of MMP-2 and 9 in conditioned media,MMP-2 and 9,reduced gelatinolytic activity; also recorded: inhibited gelatinolytic activities of MMP-2 and 9
"S=C(S)N1CCCC1 [PDTC, pyrrolidine dithiocarbamate]",gelatinolytic activity of MMP-2 and 9 in conditioned media,MMP-2 and 9,reduced gelatinolytic activity; also recorded: inhibited gelatinolytic activities of MMP-2 and 9
COc1cc(C(C)=O)ccc1O [apocynin],gelatinolytic activity of MMP-2 and 9 in conditioned media,MMP-2 and 9,markedly suppressed MMP enzymatic activity; also recorded: markedly decreased MMP activity
same,MMP-2 and 9 mRNA,MMP-2 and 9 mRNA,reduced MMP-2 and 9 mRNA
same,binding of nuclear extracts to NF-κB oligonucleotide (EMSA),NF-κB,reduced DNA binding activity of NF-κB
same,binding of nuclear extracts to NF-κB oligonucleotide (EMSA),NF-κB; listed as Apocynin,reduced binding of nuclear extracts
same,DNA binding activity to an AP-1 oligonucleotide (EMSA),AP-1,decreased DNA binding activity
CC1=CC(=O)c2ccccc2C1=O [menadione],MMP-9 production,[1],increased
"purified mouse SP-D: Surfactant protein D purified from BAL fluid of GMCSF and SP-A double null mutant mice on maltosyl-agarose (protein, UniProt P50404 20-374, looked up) Pulmonary …: AEMKSLSQRSVPNTCTLVMCSPTENGLPGRDGRDGREGPRGEKGDPGLPGPMGLSGLQGPTGPVGPKGENGSAGEPGPKGERGLSGPPGLPGIPGPAGKEGPSGKQGNIGPQGKPGPKGEAGPKGEVGAPGMQGSTGAKGSTGPKGERGAPGVQGAPGNAGAAGPAGPAGPQGAPGSRGPPGLKGDRGVPGDRGIKGESGLPDSAALRQQMEALKGKLQRLEVAFSHYQKAALFPDGRSVGDKIFRTADSEKPFEDAQEMCKQAGGQLASPRSATENAAIQQLITAHNKAAFLSMTDVGTEGKFTYPTGEPLVYSNWAPGEPNNNGGAENCVEIFTNGQWNDKACGEQRLVICEF",Saturated PC levels in alveolar lavage and total lung lavage (lipid accumulation),SP-D(−/−) mice,partial correction of lipid accumulation; also recorded: decreased both alveolar and saturated PC pools
same,MMP production by AMs,MMP-2 and 9; mouse SP-D 5 μg/ml in vitro,did not reduce MMP production
recombinant SP-D: Recombinant human SP-D dodecamers secreted by CHO-K1 cells transfected with full-length human cDNA (protein) AEMKSLSQRSVPNTCTLVMCSPTENGLPGRDGRDGREGPRGEKGDPGLPGPMGLSGLQGPTGPVGPKGENGSAGEPGPKGERGLSGPPGLPGIPGPAGKEGPSGKQGNIGPQGKPGPKGEAGPKGEVGAPGMQGSTGAKGSTGPKGERGAPGVQGAPGNAGAAGPAGPAGPQGAPGSRGPPGLKGDRGVPGDRGIKGESGLPDSAALRQQMEALKGKLQRLEVAFSHYQKAALFPDGRSVGDKIFRTADSEKPFEDAQEMCKQAGGQLASPRSATENAAIQQLITAHNKAAFLSMTDVGTEGKFTYPTGEPLVYSNWAPGEPNNNGGAENCVEIFTNGQWNDKACGEQRLVICEF,IAV (Phil/82) titer in lung,"[2]; 5 μg intratracheal co-administration, 3 days after infection, untreated 1.6×10^5±4.0×10^4, mean±SEM",7.5×10^4±1.4×10^4 ff/gram lung
same,clearance of IAV from the lung,[2]; co-administration of recombinant SP-D,normalized viral clearance; also recorded: enhanced clearance
